One block for each molecule: values may come before it.
What was measured:
[1] = Hygroscopicity study by dynamic vapor sorption (DVS); format: physicochemical; settings: 25° C./80% RH
Protocol: Dynamic Vapor Sorption (DVS)
Instrument model: SMS DVS Advantage dynamic vapor sorption analyzer
Test conditions: samples (10-15 mg) were disposed in the DVS sample tray for testing.
The detailed DVS parameters were as follows:
Balance: dm/dt=0.01%/min (shortest: 10 min, longest: 180 min)
Drying: drying for 120 min at 0% RH
RH (%) test step range: 0%-90%-0%
The hygroscopicity evaluation is classified as follows:
SMS DVS Advantage dynamic vapor sorption analyzer

[2] = Long-term crystal form stability test under high temperature and high humidity conditions (XRPD); format: physicochemical; settings: 40° C., 75% RH, 10th day and 31th day
[3] = Solid stability test under high humidity and light irradiation conditions (XRPD, HPLC); format: physicochemical
Protocol: High Performance Liquid Chromatograph (HPLC)
The bottles containing samples placed under high humidity condition were sealed with aluminum foil. Small holes were made in the aluminum foil to ensure that the samples can fully contact with the ambient air. The samples were tested on the 10th day. The bottles containing samples placed under light condition were left open and the samples were exposed to a light source, and tested after being irradiated enough energy. The test results were compared with the initial test results on day 0.

[4] = cited from earlier work
breast cancer patients = settings: intramuscular injection; cited from earlier work

- Hygroscopicity classification [1]: almost non-hygroscopic
- ΔW, weight increase caused by hygroscopy ([1]; DVS): 0.1687%
- Crystal form stability (conclusion) [2]: stable
- Crystal form (XRPD) ([3]; 0 day): Crystal form A
- Purity (%) ([3]; 0 day): 96.99%
- Related substance at relative retention time 0.97 (HPLC) ([3]; 0 day): 0.21
- Related substance at relative retention time 1.02 (HPLC) ([3]; 0 day): 0.36
- Related substance at relative retention time 1.05 (HPLC) ([3]; 0 day): 0.30
- Total content of related substances (%) ([3]; 0 day): 0.87%
- Crystal form (XRPD) ([3]; High humidity (room temperature/relative humidity 92.5%, exposed), 10th day): Crystal form A
- Related substance at relative retention time 0.97 (HPLC) ([3]; High humidity, 10 days): 0.22
- Related substance at relative retention time 1.02 (HPLC) ([3]; High humidity, 10 days): 0.23
- Related substance at relative retention time 1.05 (HPLC) ([3]; High humidity, 10 days): 0.31
- Total content of related substances (%) ([3]; High humidity, 10 days): 0.77%
- Purity (%) ([3]; Light irradiation): 101.09%
- Related substance at relative retention time 0.88 (HPLC) ([3]; Light irradiation): 0.05
- Related substance at relative retention time 0.97 (HPLC) ([3]; Light irradiation): 0.22
- Related substance at relative retention time 0.98 (HPLC) ([3]; Light irradiation): 0.17
- Related substance at relative retention time 1.02 (HPLC) ([3]; Light irradiation): 0.23
- Related substance at relative retention time 1.04 (HPLC) ([3]; Light irradiation): 0.13
- Related substance at relative retention time 1.05 (HPLC) ([3]; Light irradiation): 0.17
- Total content of related substances (%) ([3]; Light irradiation): 0.98%
- Crystal form (XRPD) ([3]; Light irradiation (1ICH, exposed)): Crystal form A
- Solid stability (conclusion) ([3]; high humidity and light irradiation condition): stable
Compound: CC/C(=C(/c1ccc(/C=C/C(=O)O)cc1)c1[nH]c2ccccc2c1Cl)c1ccc(F)cc1Cl

Compound: C[C@]12CC[C@@H]3c4ccc(O)cc4C[C@@H](CCCCCCCCC[S+]([O-])CCCC(F)(F)C(F)(F)F)[C@H]3[C@@H]1CC[C@@H]2O (some centres unmarked) [fulvestrant]
- oral bioavailability [4]: zero
- breast cancer patients who have shown a clinical response (breast cancer patients): about 50%

Reference: US11034653B2, “Crystal form of estrogen receptor inhibitor and preparation method therefor” (LUOXIN PHARMACEUTICAL (SHANGHAI) CO., LTD., priority 2017, dated 2021)
